# Measured values: ChEMBL document CHEMBL1134764, “Inhibition of RANTES/CCR1-mediated chemotaxis by cosalane and related compounds” (Bioorg Med Chem Lett, 2001)
# Biological target: T1, C-C chemokine receptor type 1 (Homo sapiens, UniProt P32246)
# T1 sequence (P32246 whole entry): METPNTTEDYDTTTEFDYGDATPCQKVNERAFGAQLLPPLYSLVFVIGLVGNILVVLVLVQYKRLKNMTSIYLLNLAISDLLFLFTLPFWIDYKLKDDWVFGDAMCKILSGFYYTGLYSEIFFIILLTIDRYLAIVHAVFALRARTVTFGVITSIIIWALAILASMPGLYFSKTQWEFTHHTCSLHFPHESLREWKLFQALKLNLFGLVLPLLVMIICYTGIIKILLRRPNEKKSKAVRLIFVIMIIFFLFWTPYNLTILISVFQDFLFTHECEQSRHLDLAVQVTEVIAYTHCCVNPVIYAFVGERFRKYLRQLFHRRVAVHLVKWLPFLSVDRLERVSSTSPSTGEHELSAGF
# Experiment: Compound was evaluated for the inhibition of RANTES-induced migration of human embryonic kidney (CCR1/HEK) cell transfectants; NA: not active; call rule not given here
# Format: functional
row,SMILES,IC50
1,CC(C)CCCC(C)[C@H]1CC[C@H]2[C@@H]3CCC4C[C@@H](CCC=C(c5cc(Cl)c(OCc6ccc(C(=O)[O-])cc6)c(C(=O)[O-])c5)c5cc(Cl)c(OCc6ccc(C(=O)[O-])cc6)c(C(=O)[O-])c5)CC[C@]4(C)[C@H]3CC[C@]12C.[Na+].[Na+].[Na+].[Na+] (stereo partly specified),Not Active

# System: not listed separately
# Experiment: Compound was evaluated for the inhibition of RANTES-induced migration of human monocytes; NA: not active
# Format: functional
row,SMILES,IC50
1,CC(C)CCCC(C)[C@H]1CC[C@H]2[C@@H]3CCC4C[C@@H](CCC=C(c5cc(Cl)c(O)c(C(=O)N[C@@H](CC(=O)O)C(=O)O)c5)c5cc(Cl)c(O)c(C(=O)N[C@@H](CC(=O)O)C(=O)O)c5)CC[C@]4(C)[C@H]3CC[C@]12C (stereo partly specified),Not Active
2,COc1c(COc2c(Cl)cc(C(=CCC[C@H]3CC[C@@]4(C)C(CC[C@H]5[C@@H]6CC[C@H](C(C)CCCC(C)C)[C@@]6(C)CC[C@@H]54)C3)c3cc(Cl)c(OCc4cccc(C(=O)O)c4OC)c(C(=O)[O-])c3)cc2C(=O)[O-])cccc1C(=O)O.[Na+].[Na+] (stereo partly specified),Not Active
3,CC(C)CCCC(C)[C@H]1CC[C@H]2[C@@H]3CCC4C[C@@H](CCC=C(c5cc(Cl)c(OCc6ccccc6B([O-])O)c(C(=O)[O-])c5)c5cc(Cl)c(OCc6ccccc6B([O-])O)c(C(=O)[O-])c5)CC[C@]4(C)[C@H]3CC[C@]12C.[Na+].[Na+].[Na+].[Na+] (stereo partly specified),Not Active
4,CC(C)CCCC(C)[C@H]1CC[C@H]2[C@@H]3CCC4C[C@@H](CCC=C(c5cc(Cl)c(O)c(C(=O)N[C@@H](Cc6ccccc6)C(=O)O)c5)c5cc(Cl)c(O)c(C(=O)N[C@@H](Cc6ccccc6)C(=O)O)c5)CC[C@]4(C)[C@H]3CC[C@]12C (stereo partly specified),Not Active
5,CC(C)CCCC(C)[C@H]1CC[C@H]2[C@@H]3CCC4C[C@@H](CCC=C(c5cc(Cl)c(OCc6ccc(C(=O)O)cc6)c(C(=O)[O-])c5)c5cc(Cl)c(OCc6ccc(C(=O)O)cc6)c(C(=O)[O-])c5)CC[C@]4(C)[C@H]3CC[C@]12C.[Na+].[Na+] (stereo partly specified),Not Active
6,CC(C)CCCC(C)[C@H]1CC[C@H]2[C@@H]3CCC4C[C@@H](CCC=C(c5cc(Cl)c(OCc6ccc(B([O-])O)cc6)c(C(=O)[O-])c5)c5cc(Cl)c(OCc6ccc(B([O-])O)cc6)c(C(=O)[O-])c5)CC[C@]4(C)[C@H]3CC[C@]12C.[Na+].[Na+].[Na+].[Na+] (stereo partly specified),Not Active
7,CC(C)CCCC(C)[C@H]1CC[C@H]2[C@@H]3CCC4C[C@@H](CCC=C(c5cc(Cl)c(OCc6ccc(C(=O)[O-])cc6)c(C(=O)[O-])c5)c5cc(Cl)c(OCc6ccc(C(=O)[O-])cc6)c(C(=O)[O-])c5)CC[C@]4(C)[C@H]3CC[C@]12C.[Na+].[Na+].[Na+].[Na+] (stereo partly specified),Not Active
8,CC(C)CCCC(C)[C@H]1CC[C@H]2[C@@H]3CCC4C[C@@H](CCC=C(c5cc(Cl)c(O)c(C(=O)N[C@@H](CCC(=O)O)C(=O)O)c5)c5cc(Cl)c(O)c(C(=O)N[C@@H](CCC(=O)O)C(=O)O)c5)CC[C@]4(C)[C@H]3CC[C@]12C (stereo partly specified),Not Active

# System: not listed separately
# Experiment: Compound was evaluated for the inhibition of RANTES-induced migration of human monocytes
# Format: functional
row,SMILES,IC50
1,CC(C)CCCC(C)[C@H]1CC[C@H]2[C@@H]3CCC4C[C@@H](CCC=C(c5cc(Cl)c(OCc6cccc(B(O)O)c6)c(C(=O)O)c5)c5cc(Cl)c(OCc6cccc(B(O)O)c6)c(C(=O)O)c5)CC[C@]4(C)[C@H]3CC[C@]12C (stereo partly specified),2200 nM
2,CC(C)CCCC(C)[C@H]1CC[C@H]2[C@@H]3CCC4C[C@@H](CCC=C(c5cc(Cl)c(OCc6ccc(-c7cccc(C(=O)O)c7)cc6)c(C(=O)O)c5)c5cc(Cl)c(OCc6ccc(-c7cccc(C(=O)O)c7)cc6)c(C(=O)O)c5)CC[C@]4(C)[C@H]3CC[C@]12C (stereo partly specified),3000 nM
3,CSCC[C@H](NC(=O)c1cc(C(=CCC[C@H]2CC[C@@]3(C)C(CC[C@H]4[C@@H]5CC[C@H](C(C)CCCC(C)C)[C@@]5(C)CC[C@@H]43)C2)c2cc(Cl)c(O)c(C(=O)N[C@@H](CCSC)C(=O)O)c2)cc(Cl)c1O)C(=O)O (stereo partly specified),820 nM
4,CC(C)CCCC(C)[C@H]1CC[C@H]2[C@@H]3CCC4C[C@@H](CCC=C(c5cc(Cl)c(OCc6cccc(C(=O)O)c6)c(C(=O)O)c5)c5cc(Cl)c(OCc6cccc(C(=O)O)c6)c(C(=O)O)c5)CC[C@]4(C)[C@H]3CC[C@]12C (stereo partly specified),10000 nM
5,CC(C)CCCC(C)[C@H]1CC[C@H]2[C@@H]3CCC4C[C@@H](CCC=C(c5cc(Cl)c(OCc6ccccc6C(=O)O)c(C(=O)O)c5)c5cc(Cl)c(OCc6ccccc6C(=O)O)c(C(=O)O)c5)CC[C@]4(C)[C@H]3CC[C@]12C (stereo partly specified),3900 nM
6,CC(C)CCCC(C)[C@H]1CC[C@H]2[C@@H]3CCC4C[C@@H](CCC=C(c5cc(Cl)c(O)c(C(=O)O)c5)c5cc(Cl)c(O)c(C(=O)O)c5)CC[C@]4(C)[C@H]3CC[C@]12C (stereo partly specified),760 nM
7,CC(C)CCCC(C)[C@H]1CC[C@H]2[C@@H]3CCC4C[C@@H](CCC=C(c5cc(Cl)c(OCc6cccc([N+](=O)[O-])c6)c(C(=O)O)c5)c5cc(Cl)c(OCc6cccc([N+](=O)[O-])c6)c(C(=O)O)c5)CC[C@]4(C)[C@H]3CC[C@]12C (stereo partly specified),3500 nM
